System: 22Rv1 cells
Assay: 22Rv1 cell viability (CCK-8) antiproliferation assay
Format: cell-based, human
Conditions: for IC50: 22Rv1 cells, means of two independent experiments (n = 2)
Method: The 22Rv1 prostate cancer cell line in this study was purchased from KeyGEN Biotech Co. Ltd. (Nanjing, Jiangsu, China ). The cells were cultured in RPMI 1640 medium and maintained at 37 °C in a 5% CO2 incubator. For the cell viability assay, the cell slurry was diluted to required volume at a density of 80,000 cells/mL. Then, 100 μL the cell slurry was seeded in each well of the 96-well plate. The cells were incubated for 72 h at 37 °C, 5% CO2 under humidified condition. The reference and test compounds solution (200×) were prepared with DMSO and were diluted from 200× to 1× with culture medium (RPMI 1640 medium without phenol red and containing 10% fetal calf serum, penicillin (100U/mL), streptomycin (100 μg/mL) and 0.1 nM DHT). The previous culture medium was removed and 200 μL/well of the compound solution (1×) was added to assay plate (final conc: 1×). Then the cells were incubated at 37 °C, 5% CO2 under humidified conditions. 5 Days later, the CCK-8 assay reagent was equilibrated at room temperature for 30 min prior to use. CCK-8 was mixed with fresh medium at a ratio of 1:10 and 100 μL of the diluted CCK8 reagent was added to each well and the plates were incubated for 4.5 h at 37 °C. Finally, absorbance value (OD value) was read on plate reader. GraphPad Prism v5.0 software was used to process data for IC50.

IC50 (Table 1) [nM] | IC50 (Homo sapiens, Table 2) [nM] | Compound | fold less potency than A-485 (22Rv1 cell antiproliferation) [fold]
798 | – | 2-(5′-(3-Cyclopropylureido)-2′′,4′′-dioxo-2′H-dispiro[cyclopropane-1,3′-indene-1′,5′′-oxazolidin]-3′′-yl)-N-(4-fluorobenzyl)-N-((S)-1,1,1-trifluoropropan-2-yl)acetamide [A3] | –
– | 270 | CNC(=O)Cn1cc(-c2ccc3c(c2)CCC32OC(=O)N(CC(=O)N(Cc3ccc(F)cc3)[C@H]3CCc4ccccc43)C2=O)cn1 (stereo partly drawn) [B7, N-((S)-2,3-Dihydro-1H-inden-1-yl)-N-(4-fluorobenzyl)-2-(5-(1-(2-(methylamino)-2-oxoethyl)-1H-pyrazol-4-yl)-2′,4′-dioxo-2,3-dihydrospiro[indene-1,5′-oxazolidin]-3′-yl)acetamide] | –
– | 334 | CNC(=O)Cn1cc(-c2ccc3c(c2)CCC32OC(=O)N(CC(=O)N(Cc3ccc(F)cc3)[C@H]3CCc4cc(F)ccc43)C2=O)cn1 (stereo partly drawn) [B9, N-((S)-5-Fluoro-2,3-dihydro-1H-inden-1-yl)-N-(4-fluorobenzyl)-2-(5-(1-(2-(methylamino)-2-oxoethyl)-1H-pyrazol-4-yl)-2′,4′-dioxo-2,3-dihydrospiro[indene-1,5′-oxazolidin]-3′-yl)acetamide] | –
– | 1660 | CNC(=O)Cn1cc(-c2ccc3c(c2)CCC32OC(=O)N(CC(=O)N(Cc3ccc(F)cc3)[C@@H]3CCc4ccccc43)C2=O)cn1 (stereo partly drawn) [B10, N-((R)-2,3-Dihydro-1H-inden-1-yl)-N-(4-fluorobenzyl)-2-(5-(1-(2-(methylamino)-2-oxoethyl)-1H-pyrazol-4-yl)-2′,4′-dioxo-2,3-dihydrospiro[indene-1,5′-oxazolidin]-3′-yl)acetamide] | –

The remaining lines, values behind:

Compound | IC50 (Table 1) [nM] | IC50 (Homo sapiens, Table 2) [nM] | fold less potency than A-485 (22Rv1 cell antiproliferation) [fold]
C[C@H](N(Cc1ccc2c(c1)OC(F)(F)O2)C(=O)CN1C(=O)O[C@@]2(CCc3cc(-c4cnn(C)c4)ccc32)C1=O)C(F)(F)F [B1, N-((2,2-Difluorobenzo[d][1,3]dioxol-5-yl)methyl)-2-((R)-5-(1-methyl-1H-pyrazol-4-yl)-2′,4′-dioxo-2,3-dihydrospiro[indene-1,5′-oxazolidin]-3′-yl)-N-((S)-1,1,1-trifluoropropan-2-yl)acetamide] | – | 1370 | 10
CN1C2CCC1CC(N(Cc1ccc(F)cc1)C(=O)CN1C(=O)O[C@@]3(CCc4cc(-c5cnn(C)c5)ccc43)C1=O)C2 (stereo partly drawn) [B2, N-(4-Fluorobenzyl)-2-((R)-5-(1-methyl-1H-pyrazol-4-yl)-2′,4′-dioxo-2,3-dihydrospiro[indene-1,5′-oxazolidin]-3′-yl)-N-(8-methyl-8-azabicyclo[3.2.1]octan-3-yl)acetamide] | – | 37600 | –
Cn1cc(-c2ccc3c(c2)CCC32OC(=O)N(CC(=O)N(Cc3ccc(F)cc3)[C@@H]3CN4CCC3CC4)C2=O)cn1 (stereo partly drawn) [B3, N-(4-Fluorobenzyl)-2-(5-(1-methyl-1H-pyrazol-4-yl)-2′,4′-dioxo-2,3-dihydrospiro [indene-1,5′-oxazolidin]-3′-yl)-N-((S)-quinuclidin-3-yl)acetamide] | – | > 25000 | –
Cn1cc(-c2ccc3c(c2)CCC32OC(=O)N(CC(=O)N(Cc3ccc(F)cc3)[C@H]3CCc4ccccc43)C2=O)cn1 (stereo partly drawn) [B4, N-((S)-2,3-Dihydro-1H-inden-1-yl)-N-(4-fluorobenzyl)-2-(5-(1-methyl-1H-pyrazol-4-yl)-2′,4′-dioxo-2,3-dihydrospiro[indene-1,5′-oxazolidin]-3′-yl)acetamide] | – | 252 | –
CNC(=O)Nc1ccc2c(c1)CCC21OC(=O)N(CC(=O)N(Cc2ccc(F)cc2)[C@H]2CCc3ccccc32)C1=O (stereo partly drawn) [B5, N-((S)-2,3-Dihydro-1H-inden-1-yl)-N-(4-fluorobenzyl)-2-(5-(3-methylureido)-2′,4′-dioxo-2,3-dihydrospiro[indene-1,5′-oxazolidin]-3′-yl)acetamide] | – | 406 | –
CC(C)(O)Cn1cc(-c2ccc3c(c2)CCC32OC(=O)N(CC(=O)N(Cc3ccc(F)cc3)[C@H]3CCc4ccccc43)C2=O)cn1 (stereo partly drawn) [B6, N-((S)-2,3-Dihydro-1H-inden-1-yl)-N-(4-fluorobenzyl)-2-(5-(1-(2-hydroxy-2-methylpropyl)-1H-pyrazol-4-yl)-2′,4′-dioxo-2,3-dihydrospiro[indene-1,5′-oxazolidin]-3′-yl)acetamide] | – | 431 | –

Source: article PMC8198214, “Synthesis and Biological Evaluation of Spirocyclic Chromane Derivatives as a Potential Treatment of Prostate Cancer” (Molecules, 2021)
